Assay results published in patent US10815230B2, “Casein kinase 1 delta inhibitor” (ELECTROPHORETICS LIMITED, priority 2015, dated 2020).

How the values were obtained:
Assay in all cases: KINOMEscan binding assay
Conditions in all cases: read-out: % Ctrl @ 10000 nM
[1] = molecular target: ABL1 (F317I) non-phosphorylated (Homo sapiens, UniProt P00519, F317I)
ASK1 = ASK1 (Homo sapiens, UniProt Q99683)
AURKB = AURKB (Homo sapiens, UniProt Q96GD4)
BUB1 = BUB1 (Homo sapiens, UniProt O43683)
CAMK1G = CAMK1G (Homo sapiens, UniProt Q96NX5)
CAMKK1 = CAMKK1 (Homo sapiens, UniProt Q8N5S9)
CASK = CASK (Homo sapiens, UniProt O14936)
CDC2L1 = CDC2L1 (Homo sapiens, UniProt P21127)
CDKL2 = CDKL2 (Homo sapiens, UniProt Q92772)
CHEK2 = CHEK2 (Homo sapiens, UniProt O96017)
CSNK1A1L = CSNK1A1L (Homo sapiens, UniProt Q8N752)
DRAK2 = DRAK2 (Homo sapiens, UniProt O94768)
EGFR (L858R) = EGFR (L858R) (Homo sapiens, UniProt P00533, L858R)
Sequence of EGFR (L858R) (P00533 25-1210 L858R): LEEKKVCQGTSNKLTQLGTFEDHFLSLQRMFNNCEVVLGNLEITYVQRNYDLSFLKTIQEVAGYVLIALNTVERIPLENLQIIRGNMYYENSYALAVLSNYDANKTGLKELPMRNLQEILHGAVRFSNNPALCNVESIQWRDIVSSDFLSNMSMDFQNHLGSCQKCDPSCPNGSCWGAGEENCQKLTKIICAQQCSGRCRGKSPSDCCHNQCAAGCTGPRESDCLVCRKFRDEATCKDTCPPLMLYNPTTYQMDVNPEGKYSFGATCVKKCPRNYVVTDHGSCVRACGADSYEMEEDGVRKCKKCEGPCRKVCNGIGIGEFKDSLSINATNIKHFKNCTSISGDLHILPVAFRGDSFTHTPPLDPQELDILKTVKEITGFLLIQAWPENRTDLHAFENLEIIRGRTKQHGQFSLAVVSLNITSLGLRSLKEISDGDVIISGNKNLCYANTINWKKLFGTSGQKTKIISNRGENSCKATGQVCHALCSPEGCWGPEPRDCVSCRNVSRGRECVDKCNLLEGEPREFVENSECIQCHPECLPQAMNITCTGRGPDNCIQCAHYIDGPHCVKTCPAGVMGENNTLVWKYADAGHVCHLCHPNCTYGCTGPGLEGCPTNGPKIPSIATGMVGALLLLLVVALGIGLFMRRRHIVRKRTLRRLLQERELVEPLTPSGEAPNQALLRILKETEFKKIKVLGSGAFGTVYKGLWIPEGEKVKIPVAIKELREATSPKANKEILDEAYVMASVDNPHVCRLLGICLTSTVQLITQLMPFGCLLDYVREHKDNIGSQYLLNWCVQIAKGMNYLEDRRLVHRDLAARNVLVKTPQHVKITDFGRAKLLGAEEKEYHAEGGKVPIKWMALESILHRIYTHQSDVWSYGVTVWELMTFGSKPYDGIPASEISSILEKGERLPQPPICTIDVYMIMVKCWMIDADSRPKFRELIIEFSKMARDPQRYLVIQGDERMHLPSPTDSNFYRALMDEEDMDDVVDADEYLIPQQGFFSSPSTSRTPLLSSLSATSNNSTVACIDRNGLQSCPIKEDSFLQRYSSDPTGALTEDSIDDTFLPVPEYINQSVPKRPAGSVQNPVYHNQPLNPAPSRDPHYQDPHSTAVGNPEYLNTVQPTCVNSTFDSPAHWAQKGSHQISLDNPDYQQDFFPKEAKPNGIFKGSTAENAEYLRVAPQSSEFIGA

EGFR (S752-I759del) = EGFR (S752-I759del) (Homo sapiens, UniProt P00533, DEL752-759)
EPHA6 = EPHA6 (Homo sapiens, UniProt Q9UF33)
FGFR2 = FGFR2 (Homo sapiens, UniProt P21802)
FLT4 = FLT4 (Homo sapiens, UniProt P35916)
GAK = GAK (Homo sapiens, UniProt O14976)
GRK4 = GRK4 (Homo sapiens, UniProt P32298)
[2] = molecular target: JAK1 (JH1domain-catalytic) (Homo sapiens, UniProt P23458)
Sequence of JAK1 (JH1domain-catalytic) (P23458 875-1153 limits assumed): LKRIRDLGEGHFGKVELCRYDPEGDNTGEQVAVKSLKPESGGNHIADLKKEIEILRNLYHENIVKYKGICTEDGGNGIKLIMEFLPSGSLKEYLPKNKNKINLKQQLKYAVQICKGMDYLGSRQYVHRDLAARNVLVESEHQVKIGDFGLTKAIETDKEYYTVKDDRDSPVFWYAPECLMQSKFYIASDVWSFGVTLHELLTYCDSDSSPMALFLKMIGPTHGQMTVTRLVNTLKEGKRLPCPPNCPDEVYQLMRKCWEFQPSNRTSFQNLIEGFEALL

LIMK2 = LIMK2 (Homo sapiens, UniProt P53671)
MARK4 = MARK4 (Homo sapiens, UniProt Q96L34)
MAST1 = MAST1 (Homo sapiens, UniProt Q9Y2H9)
MKK7 = MKK7 (Homo sapiens, UniProt O14733)
MLK1 = MLK1 (Homo sapiens, UniProt P80192)
MLK3 = MLK3 (Homo sapiens, UniProt Q16584)
Sequence of MLK3 (Q16584 whole entry): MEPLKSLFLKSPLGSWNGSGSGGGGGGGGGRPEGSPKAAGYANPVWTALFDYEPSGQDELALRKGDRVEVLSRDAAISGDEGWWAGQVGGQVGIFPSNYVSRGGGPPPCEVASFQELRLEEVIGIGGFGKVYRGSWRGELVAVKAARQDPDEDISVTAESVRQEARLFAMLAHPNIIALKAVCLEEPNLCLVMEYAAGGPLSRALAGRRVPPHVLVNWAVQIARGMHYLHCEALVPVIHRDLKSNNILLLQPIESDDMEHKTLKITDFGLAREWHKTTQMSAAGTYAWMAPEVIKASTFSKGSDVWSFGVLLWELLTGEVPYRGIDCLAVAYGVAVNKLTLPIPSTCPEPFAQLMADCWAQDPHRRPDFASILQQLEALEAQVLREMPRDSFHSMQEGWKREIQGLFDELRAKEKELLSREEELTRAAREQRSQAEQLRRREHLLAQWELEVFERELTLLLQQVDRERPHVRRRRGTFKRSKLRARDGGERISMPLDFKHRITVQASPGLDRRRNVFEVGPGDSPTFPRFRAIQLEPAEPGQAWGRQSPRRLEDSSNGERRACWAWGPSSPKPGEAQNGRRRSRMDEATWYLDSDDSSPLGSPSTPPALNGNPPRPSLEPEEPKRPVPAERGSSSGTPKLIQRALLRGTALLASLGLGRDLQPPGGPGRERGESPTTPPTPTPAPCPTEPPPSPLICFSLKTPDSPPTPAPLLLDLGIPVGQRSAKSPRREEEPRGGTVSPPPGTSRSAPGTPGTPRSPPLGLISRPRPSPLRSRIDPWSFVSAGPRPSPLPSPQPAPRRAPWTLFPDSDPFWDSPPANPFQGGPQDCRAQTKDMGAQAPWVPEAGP

NEK1 = NEK1 (Homo sapiens, UniProt Q96PY6)
Sequence of NEK1 (Q96PY6 whole entry): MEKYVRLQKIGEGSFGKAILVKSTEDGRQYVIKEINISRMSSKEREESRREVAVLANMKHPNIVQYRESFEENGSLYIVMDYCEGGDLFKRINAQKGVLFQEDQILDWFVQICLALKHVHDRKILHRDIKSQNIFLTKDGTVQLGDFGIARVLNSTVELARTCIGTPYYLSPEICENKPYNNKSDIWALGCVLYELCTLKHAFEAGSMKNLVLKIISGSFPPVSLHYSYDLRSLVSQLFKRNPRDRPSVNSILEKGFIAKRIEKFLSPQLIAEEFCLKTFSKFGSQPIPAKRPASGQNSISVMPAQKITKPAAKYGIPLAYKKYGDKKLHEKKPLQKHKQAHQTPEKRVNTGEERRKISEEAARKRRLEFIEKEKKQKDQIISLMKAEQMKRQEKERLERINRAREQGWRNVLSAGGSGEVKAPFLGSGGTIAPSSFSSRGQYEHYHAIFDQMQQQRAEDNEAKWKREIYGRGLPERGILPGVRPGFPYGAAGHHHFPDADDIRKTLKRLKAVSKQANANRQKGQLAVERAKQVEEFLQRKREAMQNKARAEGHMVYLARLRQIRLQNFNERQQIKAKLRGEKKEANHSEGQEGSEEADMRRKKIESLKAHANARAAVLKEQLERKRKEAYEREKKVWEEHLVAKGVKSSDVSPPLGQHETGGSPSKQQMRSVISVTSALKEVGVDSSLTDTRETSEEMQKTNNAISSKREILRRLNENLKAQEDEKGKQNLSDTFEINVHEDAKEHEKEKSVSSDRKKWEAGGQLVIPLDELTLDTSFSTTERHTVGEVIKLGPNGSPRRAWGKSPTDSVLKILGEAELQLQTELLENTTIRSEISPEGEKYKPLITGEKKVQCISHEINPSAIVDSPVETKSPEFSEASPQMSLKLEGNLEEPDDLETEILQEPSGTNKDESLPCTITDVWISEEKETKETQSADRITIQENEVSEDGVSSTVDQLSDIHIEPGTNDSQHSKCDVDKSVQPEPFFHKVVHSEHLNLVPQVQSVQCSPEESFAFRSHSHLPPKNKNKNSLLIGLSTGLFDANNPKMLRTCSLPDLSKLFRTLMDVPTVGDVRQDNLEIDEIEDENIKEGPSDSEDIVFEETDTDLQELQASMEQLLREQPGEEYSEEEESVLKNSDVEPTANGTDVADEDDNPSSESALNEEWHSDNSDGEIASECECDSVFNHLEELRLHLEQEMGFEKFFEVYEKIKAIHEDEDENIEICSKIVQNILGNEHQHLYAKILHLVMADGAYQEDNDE

NIK = NIK (Homo sapiens, UniProt Q99558)
PAK2 = PAK2 (Homo sapiens, UniProt Q13177)
PCTK1 = PCTK1 (Homo sapiens, UniProt Q00536)
PIK3CA (E545K) = PIK3CA (E545K) (Homo sapiens, UniProt P42336, E545K)
PIK4CB = PIK4CB (Homo sapiens, UniProt Q9UBF8)
PKN2 = PKN2 (Homo sapiens, UniProt Q16513)
RET = RET (Homo sapiens, UniProt P07949)
ROCK2 = ROCK2 (Homo sapiens, UniProt O75116)
SGK = SGK (Homo sapiens, UniProt O00141)
SIK2 = SIK2 (Homo sapiens, UniProt Q9H0K1)
STK36 = STK36 (Homo sapiens, UniProt Q9NRP7)
Sequence of STK36 (Q9NRP7 whole entry): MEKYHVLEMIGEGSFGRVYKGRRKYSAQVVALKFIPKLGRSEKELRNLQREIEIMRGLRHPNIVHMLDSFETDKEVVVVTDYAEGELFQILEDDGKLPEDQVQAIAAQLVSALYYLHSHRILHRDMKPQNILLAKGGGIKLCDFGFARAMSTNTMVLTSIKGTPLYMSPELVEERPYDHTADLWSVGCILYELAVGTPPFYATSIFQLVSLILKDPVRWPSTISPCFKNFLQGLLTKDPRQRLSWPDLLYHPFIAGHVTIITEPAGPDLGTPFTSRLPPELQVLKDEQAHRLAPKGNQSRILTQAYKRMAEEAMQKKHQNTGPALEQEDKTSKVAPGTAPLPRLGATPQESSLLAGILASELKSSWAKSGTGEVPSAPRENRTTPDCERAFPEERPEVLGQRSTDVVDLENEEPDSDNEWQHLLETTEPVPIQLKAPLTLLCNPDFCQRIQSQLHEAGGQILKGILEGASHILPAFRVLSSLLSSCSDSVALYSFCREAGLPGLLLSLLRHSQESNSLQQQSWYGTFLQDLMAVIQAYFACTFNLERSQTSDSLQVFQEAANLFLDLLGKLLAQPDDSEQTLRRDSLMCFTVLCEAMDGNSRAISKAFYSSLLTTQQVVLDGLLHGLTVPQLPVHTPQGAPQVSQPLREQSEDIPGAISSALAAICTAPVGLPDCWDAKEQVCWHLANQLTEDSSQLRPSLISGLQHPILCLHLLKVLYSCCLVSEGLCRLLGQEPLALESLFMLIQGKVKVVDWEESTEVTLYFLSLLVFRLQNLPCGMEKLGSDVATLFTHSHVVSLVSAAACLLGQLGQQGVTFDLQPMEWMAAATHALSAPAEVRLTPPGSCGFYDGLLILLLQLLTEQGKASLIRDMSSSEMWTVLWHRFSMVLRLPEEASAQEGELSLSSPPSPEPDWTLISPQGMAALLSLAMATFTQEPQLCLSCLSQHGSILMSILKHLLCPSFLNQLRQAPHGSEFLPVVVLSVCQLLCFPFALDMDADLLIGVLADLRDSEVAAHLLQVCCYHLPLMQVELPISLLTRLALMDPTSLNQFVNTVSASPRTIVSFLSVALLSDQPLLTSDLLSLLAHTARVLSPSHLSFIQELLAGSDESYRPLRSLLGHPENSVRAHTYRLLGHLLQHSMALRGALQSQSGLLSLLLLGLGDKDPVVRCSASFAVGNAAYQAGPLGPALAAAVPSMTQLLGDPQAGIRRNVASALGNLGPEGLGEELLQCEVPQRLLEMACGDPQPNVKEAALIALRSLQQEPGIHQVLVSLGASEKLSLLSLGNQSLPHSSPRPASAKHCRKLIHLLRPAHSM

TNK1 = TNK1 (Homo sapiens, UniProt Q13470)
TNNI3K = TNNI3K (Homo sapiens, UniProt Q59H18)
TRKA = TRKA (Homo sapiens, UniProt P04629)
TRKB = TRKB (Homo sapiens, UniProt Q16620)
TRKC = TRKC (Homo sapiens, UniProt Q16288)

Nc1ncc(-c2nc3ccccc3o2)c(-c2ccncc2)n1 [Comparative Compound 324, 5-(1,3-benzoxazol-2-yl)-4-(pyridine-4-yl)pyrimidin-2-amine]
remaining binding at 10 µM [1]: 90%
remaining binding at 10 µM (ASK1): 96%
remaining binding at 10 µM (AURKB): 96%
remaining binding at 10 µM (BUB1): 44%
remaining binding at 10 µM (CAMK1G): 89%
remaining binding at 10 µM (CAMKK1): 100%
remaining binding at 10 µM (CASK): 78%
remaining binding at 10 µM (CDC2L1): 91%
remaining binding at 10 µM (CDKL2): 100%
remaining binding at 10 µM (CHEK2): 100%
remaining binding at 10 µM (CSNK1A1L): 81%
remaining binding at 10 µM (DRAK2): 87%
remaining binding at 10 µM (EGFR (L858R)): 76%
remaining binding at 10 µM (EGFR (S752-I759del)): 84%
remaining binding at 10 µM (EPHA6): 100%
remaining binding at 10 µM (FGFR2): 63%
remaining binding at 10 µM (FLT4): 79%
remaining binding at 10 µM (GAK): 87%
remaining binding at 10 µM (GRK4): 100%
remaining binding at 10 µM [2]: 88%
remaining binding at 10 µM (LIMK2): 100%
remaining binding at 10 µM (MARK4): 100%
remaining binding at 10 µM (MAST1): 86%
remaining binding at 10 µM (MKK7): 100%
remaining binding at 10 µM (MLK1): 100%
remaining binding at 10 µM (MLK3): 83%
remaining binding at 10 µM (NEK1): 100%
remaining binding at 10 µM (NIK): 100%
remaining binding at 10 µM (PAK2): 92%
remaining binding at 10 µM (PCTK1): 95%
remaining binding at 10 µM (PIK3CA (E545K)): 82%
remaining binding at 10 µM (PIK4CB): 96%
remaining binding at 10 µM (PKN2): 94%
remaining binding at 10 µM (RET): 94%
remaining binding at 10 µM (ROCK2): 83%
remaining binding at 10 µM (SGK): 100%
remaining binding at 10 µM (SIK2): 100%
remaining binding at 10 µM (STK36): 96%
remaining binding at 10 µM (TNK1): 97%
remaining binding at 10 µM (TNNI3K): 100%
remaining binding at 10 µM (TRKA): 77%
remaining binding at 10 µM (TRKB): 67%
remaining binding at 10 µM (TRKC): 81%

CNc1c(C(N)=O)c2ccccn2c1C(=O)c1ccc(F)cc1 [Compound A, 2-methyl-amino-3-[(4-fluorophenyl)carbonyl]indolizine-1-carboxamide]
remaining binding at 10 µM [1]: 85%
remaining binding at 10 µM (ASK1): 87%
remaining binding at 10 µM (AURKB): 86%
remaining binding at 10 µM (BUB1): 44%
remaining binding at 10 µM (CAMK1G): 65%
remaining binding at 10 µM (CAMKK1): 89%
remaining binding at 10 µM (CASK): 77%
remaining binding at 10 µM (CDC2L1): 85%
remaining binding at 10 µM (CDKL2): 85%
remaining binding at 10 µM (CHEK2): 100%
remaining binding at 10 µM (CSNK1A1L): 1.2%
remaining binding at 10 µM (DRAK2): 87%
remaining binding at 10 µM (EGFR (L858R)): 25%
remaining binding at 10 µM (EGFR (S752-I759del)): 18%
remaining binding at 10 µM (EPHA6): 96%
remaining binding at 10 µM (FGFR2): 53%
remaining binding at 10 µM (FLT4): 62%
remaining binding at 10 µM (GAK): 10%
remaining binding at 10 µM (GRK4): 97%
remaining binding at 10 µM [2]: 73%
remaining binding at 10 µM (LIMK2): 100%
remaining binding at 10 µM (MARK4): 100%
remaining binding at 10 µM (MAST1): 75%
remaining binding at 10 µM (MKK7): 100%
remaining binding at 10 µM (MLK1): 95%
remaining binding at 10 µM (MLK3): 83%
remaining binding at 10 µM (NEK1): 95%
remaining binding at 10 µM (NIK): 100%
remaining binding at 10 µM (PAK2): 79%
remaining binding at 10 µM (PCTK1): 89%
remaining binding at 10 µM (PIK3CA (E545K)): 77%
remaining binding at 10 µM (PIK4CB): 90%
remaining binding at 10 µM (PKN2): 100%
remaining binding at 10 µM (RET): 80%
remaining binding at 10 µM (ROCK2): 71%
remaining binding at 10 µM (SGK): 100%
remaining binding at 10 µM (SIK2): 59%
remaining binding at 10 µM (STK36): 69%
remaining binding at 10 µM (TNK1): 99%
remaining binding at 10 µM (TNNI3K): 78%
remaining binding at 10 µM (TRKA): 86%
remaining binding at 10 µM (TRKB): 76%
remaining binding at 10 µM (TRKC): 75%
